The text below walks through data of ChEMBL document CHEMBL1201862, “PubChem BioAssay data set” (2004).

Calls of active or inactive are those of the source.

The target in assay [1] is Photoreceptor-specific nuclear receptor (Homo sapiens, UniProt Q9Y5X4). In kind it is functional.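 Note: potency for compounds that break the NR2E3 corepressor complex and count as activators.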
Assay [2] concerns the target Peroxisome proliferator-activated receptor gamma/Nuclear receptor corepressor 2 (Homo sapiens, UniProt P37231+Q9Y618). In kind it is functional.
For assay [3], the target named is T1, Heat shock factor protein 1 (Mus musculus, UniProt P38532).
T1 sequence (P38532 whole entry): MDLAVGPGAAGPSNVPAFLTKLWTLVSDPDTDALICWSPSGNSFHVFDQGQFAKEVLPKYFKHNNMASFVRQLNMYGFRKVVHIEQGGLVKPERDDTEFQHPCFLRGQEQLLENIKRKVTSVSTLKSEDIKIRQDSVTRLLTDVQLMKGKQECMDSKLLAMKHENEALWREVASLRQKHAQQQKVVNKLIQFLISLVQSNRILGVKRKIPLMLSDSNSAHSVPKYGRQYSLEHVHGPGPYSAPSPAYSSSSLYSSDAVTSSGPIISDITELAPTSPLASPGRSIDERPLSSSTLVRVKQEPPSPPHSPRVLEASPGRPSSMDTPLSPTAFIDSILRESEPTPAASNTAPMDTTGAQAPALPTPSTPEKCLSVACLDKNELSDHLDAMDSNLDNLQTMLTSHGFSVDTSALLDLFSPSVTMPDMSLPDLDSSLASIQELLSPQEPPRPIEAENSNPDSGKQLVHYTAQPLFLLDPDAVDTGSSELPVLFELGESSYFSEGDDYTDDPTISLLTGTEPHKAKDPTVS
In words: enhancement of HSF1-driven luciferase signal – cell-based, NIH3T3, luminescence, dose retest, confirmation (AID 435004).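 Note: stress induced by proteasome inhibitor MG132 added 30 min after compound; luciferase reporter driven by HSF1 response element in NIH3T3 cells; actives raise luminescence as potentiators of the MG132 stress response.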 In kind it is functional.

In another assay the target is Cytochrome P450 2C9 (Homo sapiens, UniProt P11712). The settings on record: Potency.
Assay [4] can be described thus: Trypanosoma cruzi growth suppression in host cells – NIH3T3 host cells, beta-gal luminescence, confirmation (AID 2044).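 Note: intracellular parasites grown in NIH/3T3 mouse fibroblasts as host cells; luminescent beta-galactosidase reporter signal from transgenic T. cruzi replicating inside host cells; inhibitors lower the luminescence signal.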 The format is functional, cell-based.
Assay [5] is described as follows: NIH3T3 cell viability loss – ATP luminescence, mouse fibroblasts, counter-screen, dose response (AID 2010).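 Note: cells exposed to compound for about 90 hours before reading.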 In kind it is functional, cell-based. In general terms: The purpose of a counterscreen is to sort out artefacts and off-target activity.
Assay [6] addresses Neurotensin receptor type 1 (Homo sapiens, UniProt P30989). In kind it is functional.
A further assay relates to HeLa. In words: viability loss in HeLa cells – cell-based, 24 h, cherry-picked samples, cytotoxicity control, dose response (AID 504726).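 Note: potency for cytotoxicity as loss of luminescence signal.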 In kind it is functional. As to conditions: Homo sapiens.
Another assay concerns the target Mucolipin-3 (Homo sapiens, UniProt Q8TDD5). Nature of the assay: Dose response cell-based high-throughput screening assay for agonists of the transient receptor potential channel ML3 (TRPML3). [Related pubchem assays: 1526, 1424, 1448 ]. The format is functional.
Assay [7] addresses T2, Ion channel NompC (Danio rerio, UniProt Q7T1G6). In words: Fluorescence counterscreen assay for TRPML3 agonists: dose response cell-based high-throughput screening assay to identify agonists of the transient receptor potential channel N1 (TRPN1). [Related pubchem assays: 1526, 1424, 1448 ]. The format is functional.
Assay [8] has as its target T2, Ion channel NompC. Nature of the assay: activators of mucolipin-3 and mucolipin-2 – cell-based, […], Fura-2 profiling panel, panel member TRPN1 Dose Response (AID 2116). For orientation: The patch-clamp technique gives a direct electrical read-out from membranes.
For assay [9], the target named is T3, Corticotropin-releasing factor receptor 2/Corticotropin-releasing factor-binding protein (Homo sapiens, UniProt P24387+Q13324).
T3 sequence (Q13324 whole entry): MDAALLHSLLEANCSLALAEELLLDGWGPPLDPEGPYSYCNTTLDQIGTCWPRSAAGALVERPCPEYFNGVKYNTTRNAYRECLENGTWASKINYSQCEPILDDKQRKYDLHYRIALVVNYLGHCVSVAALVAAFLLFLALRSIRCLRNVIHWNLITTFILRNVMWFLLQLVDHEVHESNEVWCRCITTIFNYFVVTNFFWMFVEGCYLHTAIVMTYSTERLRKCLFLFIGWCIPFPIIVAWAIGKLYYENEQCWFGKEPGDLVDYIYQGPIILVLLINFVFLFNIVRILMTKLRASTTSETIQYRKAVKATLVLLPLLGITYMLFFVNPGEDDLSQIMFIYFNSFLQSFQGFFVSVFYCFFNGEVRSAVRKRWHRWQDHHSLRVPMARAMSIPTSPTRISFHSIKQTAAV
T3 sequence (P24387 whole entry): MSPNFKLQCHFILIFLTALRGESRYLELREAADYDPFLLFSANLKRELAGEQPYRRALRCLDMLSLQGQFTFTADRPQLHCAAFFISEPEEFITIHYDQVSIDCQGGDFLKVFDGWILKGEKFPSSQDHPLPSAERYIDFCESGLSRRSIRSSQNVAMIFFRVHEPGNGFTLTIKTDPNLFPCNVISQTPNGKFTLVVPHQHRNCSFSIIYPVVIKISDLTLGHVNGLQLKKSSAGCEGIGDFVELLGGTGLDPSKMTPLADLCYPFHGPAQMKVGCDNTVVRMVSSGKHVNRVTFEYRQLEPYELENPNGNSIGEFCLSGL
Nature of the assay: activators of CRF receptor 2 with binding protein – uHTS hits, confirmation (AID 602473). The format is functional. The settings on record: read-out: EC50_Mean.

In assay [10] the target is Mothers against decapentaplegic homolog 3 (Homo sapiens, UniProt P84022). In words: blockers of Smad3 complex formation in lysate – cell lysate, secondary confirmation, chemiluminescent ELISA, HEK293 lysate, dose response (AID 1058). The format is functional. (In general: ELISA stands for enzyme-linked immunosorbent assay.)
The target of assay [11] is Melanin-concentrating hormone receptor 1 (Homo sapiens, UniProt Q99705). Nature of the assay: Late-stage fluorescence-based counterscreen for antagonists of the G-protein coupled receptor 7 (GPR7): cell-based dose response assay to identify antagonists of the melanin-concentrating hormone receptor 1 (MCHR1). [Related pubchem assays (depositor defined):AID1861, AID1880, AID1952, AID2148, AID2251, AID2257, AID485339]. In kind it is functional.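 Note: stimulated with 30 nM MCH peptide agonist.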

In assay [12] the target is C-C chemokine receptor type 6 (Homo sapiens, UniProt P51684). In words: antagonism of CCR6 beta-arrestin recruitment – cell-based, luminescent beta-arrestin readout, dose response (AID 504728). The format is functional.
In the next assay the target is Beta-galactosidase (Escherichia coli, UniProt Q8VNN2). Nature of the assay: detection-enzyme interference by beta-gal modulators – biochemical, E. coli enzyme, set 3, artefact control for CCR6 antagonist project, dose response (AID 504712). The format is functional.
The target in assay [13] is T4, Short transient receptor potential channel 4 (Mus musculus, UniProt Q9QUQ5).
T4 sequence (Q9QUQ5 whole entry): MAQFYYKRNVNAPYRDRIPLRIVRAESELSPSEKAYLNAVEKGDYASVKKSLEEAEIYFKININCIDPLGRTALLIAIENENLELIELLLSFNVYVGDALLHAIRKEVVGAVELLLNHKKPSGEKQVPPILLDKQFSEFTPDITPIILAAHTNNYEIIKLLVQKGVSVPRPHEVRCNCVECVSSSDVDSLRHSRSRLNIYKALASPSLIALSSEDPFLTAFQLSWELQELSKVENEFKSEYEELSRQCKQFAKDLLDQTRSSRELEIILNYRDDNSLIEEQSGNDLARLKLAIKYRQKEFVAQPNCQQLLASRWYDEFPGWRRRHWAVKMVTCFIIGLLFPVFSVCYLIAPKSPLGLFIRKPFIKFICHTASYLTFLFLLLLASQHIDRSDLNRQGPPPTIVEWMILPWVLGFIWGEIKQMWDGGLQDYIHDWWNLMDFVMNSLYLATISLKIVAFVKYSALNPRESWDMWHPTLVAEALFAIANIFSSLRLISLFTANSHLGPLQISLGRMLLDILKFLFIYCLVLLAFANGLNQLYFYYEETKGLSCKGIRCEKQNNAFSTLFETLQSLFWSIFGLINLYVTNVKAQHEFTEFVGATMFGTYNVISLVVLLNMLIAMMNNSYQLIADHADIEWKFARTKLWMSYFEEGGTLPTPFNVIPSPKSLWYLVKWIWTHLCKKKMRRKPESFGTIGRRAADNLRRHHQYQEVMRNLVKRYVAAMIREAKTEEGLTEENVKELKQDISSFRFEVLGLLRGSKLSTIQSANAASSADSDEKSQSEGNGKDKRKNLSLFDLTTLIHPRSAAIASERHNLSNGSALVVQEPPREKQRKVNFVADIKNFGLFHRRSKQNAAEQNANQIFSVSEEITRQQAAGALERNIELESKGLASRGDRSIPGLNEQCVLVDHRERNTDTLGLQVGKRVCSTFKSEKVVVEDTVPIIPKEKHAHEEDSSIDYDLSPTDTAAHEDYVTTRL
In words: calcium entry via TRPC4 opening agents – cell-based, HEK293 TRPC4/mu-opioid, Fluo-4 calcium, dose response (AID 434937). The format is functional.

For assay [14], the target named is Acyl-homoserine lactone acylase PvdQ (Pseudomonas aeruginosa (strain LESB58), UniProt Q9I194). Nature of the assay: PvdQ acylase enzyme activity blockers – biochemical, fluorescence, plate reader and imaging, cherry-picks, dose response (AID 493231).
The target of assay [15] is G2/mitotic-specific cyclin-B1 (Homo sapiens, UniProt P14635). In words: Counterscreen assay for inhibitors of Wee1 degradation: dose response cell-based assay to identify inhibitors of cyclin B degradation. [Related pubchem assays: 1410, 1321 ]. In kind it is functional.
Assay [16] concerns BJ. In words: BJ-TERT fibroblast viability loss – cell-based, RAS-independent, luminescence, dose response (AID 1933). The format is functional. As to conditions: Homo sapiens.
The next assay deals with Wee1-like protein kinase (Homo sapiens, UniProt P30291). In words: Dose Response Cell-based Assay for Inhibitors of Wee1 Degradation. [Related pubchem assays: 1410, 1321 ]. The format is functional.
For assay [17], the system named is BJ. In words: cells. The settings on record: Homo sapiens. In kind it is functional, cell-based.
Assay [18] has as its system BJ. In words: BJ-TERT-LT-ST fibroblast viability loss – cell-based, RAS-independent, luminescence, dose response (AID 1935).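 Note: BJ fibroblasts immortalized with TERT plus LT and ST oncogenes.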 As to conditions: Homo sapiens. In kind it is functional.
The nature of assay [19]: DRD fibroblast viability loss – cell-based, non-viral oncogenic, luminescence, dose response (AID 1934). The format is functional. The settings on record: Homo sapiens.
The nature of assay [20]: Luminescence Cell-Based Dose Retest to Confirm Inhibitors of Cancer Stem Cells. [Related pubchem assays (depositor defined):AID2717, AID2721]. In kind it is functional. The settings on record: Homo sapiens.
In assay [21] the target is Metabotropic glutamate receptor 4 (Homo sapiens, UniProt Q14833). Nature of the assay: Modulation of the Metabotropic Glutamate Receptor mGluR4: Potency at human mGluR4. Modulation of intracellular Ca2+ using Fluo-4, AM, in CHO expressing recombinant receptor [Related pubchem assays (depositor defined):AID2437, AID2807]. The format is functional, cell-based.
The target in assay [22] is Metabotropic glutamate receptor 4 (Rattus norvegicus, UniProt P31423). Nature of the assay: Modulation of the Metabotropic Glutamate Receptor mGluR4: Rat PAM Potency. [Related pubchem assays (depositor defined):AID2437, AID2807]. In kind it is functional.
Sequence of Metabotropic glutamate receptor 4 (Rattus norvegicus, UniProt P31423) (P31423 whole entry): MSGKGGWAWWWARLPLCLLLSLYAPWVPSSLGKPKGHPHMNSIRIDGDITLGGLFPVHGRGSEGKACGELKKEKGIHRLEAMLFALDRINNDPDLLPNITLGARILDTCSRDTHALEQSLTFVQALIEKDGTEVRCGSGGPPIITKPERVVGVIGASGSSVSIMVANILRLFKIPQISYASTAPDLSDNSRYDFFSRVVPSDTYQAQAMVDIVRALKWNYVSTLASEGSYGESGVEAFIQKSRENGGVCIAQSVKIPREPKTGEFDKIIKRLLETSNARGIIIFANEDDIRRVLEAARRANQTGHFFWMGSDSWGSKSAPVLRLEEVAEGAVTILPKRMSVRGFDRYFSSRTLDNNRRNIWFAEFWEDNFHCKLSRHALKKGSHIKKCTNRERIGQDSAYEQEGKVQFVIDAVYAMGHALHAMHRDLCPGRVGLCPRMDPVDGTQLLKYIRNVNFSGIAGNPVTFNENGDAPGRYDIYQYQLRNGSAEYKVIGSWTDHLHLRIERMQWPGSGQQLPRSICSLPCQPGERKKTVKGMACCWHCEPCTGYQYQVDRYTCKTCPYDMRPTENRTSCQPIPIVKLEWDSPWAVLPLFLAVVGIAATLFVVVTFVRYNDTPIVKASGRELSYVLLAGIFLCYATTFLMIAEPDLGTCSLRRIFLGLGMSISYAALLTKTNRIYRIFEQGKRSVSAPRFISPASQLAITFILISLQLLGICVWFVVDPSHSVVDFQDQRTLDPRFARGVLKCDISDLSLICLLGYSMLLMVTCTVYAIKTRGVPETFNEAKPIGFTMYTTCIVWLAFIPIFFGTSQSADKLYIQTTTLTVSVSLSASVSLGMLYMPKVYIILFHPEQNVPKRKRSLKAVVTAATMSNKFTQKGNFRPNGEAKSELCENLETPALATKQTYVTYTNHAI

T2 sequence (Q7T1G6 whole entry): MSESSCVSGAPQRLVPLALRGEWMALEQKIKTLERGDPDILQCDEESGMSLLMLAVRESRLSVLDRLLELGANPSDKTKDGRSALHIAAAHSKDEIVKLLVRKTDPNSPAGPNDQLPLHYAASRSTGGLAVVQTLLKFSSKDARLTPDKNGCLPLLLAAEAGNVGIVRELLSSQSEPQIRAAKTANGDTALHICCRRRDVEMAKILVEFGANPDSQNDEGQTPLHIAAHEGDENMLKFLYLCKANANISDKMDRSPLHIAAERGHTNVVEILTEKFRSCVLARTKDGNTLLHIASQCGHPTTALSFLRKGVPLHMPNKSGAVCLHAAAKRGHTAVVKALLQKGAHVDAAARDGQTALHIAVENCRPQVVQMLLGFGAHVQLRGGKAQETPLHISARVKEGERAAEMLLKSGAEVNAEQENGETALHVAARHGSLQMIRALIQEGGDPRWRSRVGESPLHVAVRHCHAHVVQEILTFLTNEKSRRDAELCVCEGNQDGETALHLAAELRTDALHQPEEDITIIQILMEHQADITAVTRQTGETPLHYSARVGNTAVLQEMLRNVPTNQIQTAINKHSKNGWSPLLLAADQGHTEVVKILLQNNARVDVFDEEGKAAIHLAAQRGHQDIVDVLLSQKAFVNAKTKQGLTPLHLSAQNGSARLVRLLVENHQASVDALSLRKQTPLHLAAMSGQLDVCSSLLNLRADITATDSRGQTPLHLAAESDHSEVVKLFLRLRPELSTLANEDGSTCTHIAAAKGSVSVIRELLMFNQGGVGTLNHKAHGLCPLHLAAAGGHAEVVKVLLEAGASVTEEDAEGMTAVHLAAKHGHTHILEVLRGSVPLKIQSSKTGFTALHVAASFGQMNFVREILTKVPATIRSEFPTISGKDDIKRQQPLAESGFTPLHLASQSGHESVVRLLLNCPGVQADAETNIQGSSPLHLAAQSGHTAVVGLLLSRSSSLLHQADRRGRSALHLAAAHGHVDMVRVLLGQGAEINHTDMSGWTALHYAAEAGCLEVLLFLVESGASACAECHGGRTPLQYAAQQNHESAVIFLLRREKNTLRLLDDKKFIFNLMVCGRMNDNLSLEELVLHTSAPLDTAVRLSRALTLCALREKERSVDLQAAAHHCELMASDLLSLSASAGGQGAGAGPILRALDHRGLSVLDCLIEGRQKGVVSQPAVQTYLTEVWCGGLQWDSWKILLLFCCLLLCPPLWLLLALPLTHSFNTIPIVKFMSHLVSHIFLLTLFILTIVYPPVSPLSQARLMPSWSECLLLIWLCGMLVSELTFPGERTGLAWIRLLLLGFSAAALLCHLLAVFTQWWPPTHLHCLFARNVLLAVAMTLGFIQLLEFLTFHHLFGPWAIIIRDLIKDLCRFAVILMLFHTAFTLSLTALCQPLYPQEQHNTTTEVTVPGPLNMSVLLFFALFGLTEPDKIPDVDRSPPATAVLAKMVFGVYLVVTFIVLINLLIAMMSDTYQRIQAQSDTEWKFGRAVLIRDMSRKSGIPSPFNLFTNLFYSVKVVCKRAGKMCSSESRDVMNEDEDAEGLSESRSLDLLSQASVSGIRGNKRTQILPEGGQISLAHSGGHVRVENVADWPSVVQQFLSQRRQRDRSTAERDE
Sequence of Photoreceptor-specific nuclear receptor (Q9Y5X4 whole entry): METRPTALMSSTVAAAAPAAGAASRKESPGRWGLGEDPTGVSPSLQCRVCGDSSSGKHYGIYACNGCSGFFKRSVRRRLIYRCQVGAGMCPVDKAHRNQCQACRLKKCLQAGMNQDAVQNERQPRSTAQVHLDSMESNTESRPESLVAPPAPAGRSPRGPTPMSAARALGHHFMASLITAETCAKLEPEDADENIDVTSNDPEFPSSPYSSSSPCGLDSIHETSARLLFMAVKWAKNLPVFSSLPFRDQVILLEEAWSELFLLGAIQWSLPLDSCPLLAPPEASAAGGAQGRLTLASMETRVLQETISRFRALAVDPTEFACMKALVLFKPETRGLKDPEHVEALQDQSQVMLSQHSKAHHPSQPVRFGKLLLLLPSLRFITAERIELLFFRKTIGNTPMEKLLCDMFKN
Sequence of Metabotropic glutamate receptor 4 (Homo sapiens, UniProt Q14833) (Q14833 whole entry): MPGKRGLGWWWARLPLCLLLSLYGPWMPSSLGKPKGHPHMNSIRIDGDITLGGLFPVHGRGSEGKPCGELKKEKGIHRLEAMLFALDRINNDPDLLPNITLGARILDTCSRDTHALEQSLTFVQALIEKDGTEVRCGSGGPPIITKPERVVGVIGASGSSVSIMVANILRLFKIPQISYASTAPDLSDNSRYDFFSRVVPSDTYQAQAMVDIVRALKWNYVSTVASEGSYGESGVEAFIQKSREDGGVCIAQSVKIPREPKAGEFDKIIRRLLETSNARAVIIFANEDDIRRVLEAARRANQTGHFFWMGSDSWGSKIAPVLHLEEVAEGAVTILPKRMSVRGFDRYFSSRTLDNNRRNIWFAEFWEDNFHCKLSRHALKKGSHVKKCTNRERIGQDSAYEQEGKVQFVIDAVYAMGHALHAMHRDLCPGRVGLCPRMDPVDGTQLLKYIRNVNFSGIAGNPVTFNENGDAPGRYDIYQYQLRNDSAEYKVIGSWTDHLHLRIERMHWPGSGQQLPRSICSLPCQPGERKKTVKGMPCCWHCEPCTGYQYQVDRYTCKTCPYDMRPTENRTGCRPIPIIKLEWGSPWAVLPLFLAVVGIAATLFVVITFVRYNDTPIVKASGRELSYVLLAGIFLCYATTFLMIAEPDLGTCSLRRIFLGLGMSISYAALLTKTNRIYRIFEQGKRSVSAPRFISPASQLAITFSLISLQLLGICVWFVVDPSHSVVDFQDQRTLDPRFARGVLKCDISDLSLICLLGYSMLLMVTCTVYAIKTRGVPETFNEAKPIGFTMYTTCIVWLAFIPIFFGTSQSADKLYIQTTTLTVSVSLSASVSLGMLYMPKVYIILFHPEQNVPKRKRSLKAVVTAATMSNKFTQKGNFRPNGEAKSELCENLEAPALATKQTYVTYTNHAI
Sequence of C-C chemokine receptor type 6 (P51684 whole entry): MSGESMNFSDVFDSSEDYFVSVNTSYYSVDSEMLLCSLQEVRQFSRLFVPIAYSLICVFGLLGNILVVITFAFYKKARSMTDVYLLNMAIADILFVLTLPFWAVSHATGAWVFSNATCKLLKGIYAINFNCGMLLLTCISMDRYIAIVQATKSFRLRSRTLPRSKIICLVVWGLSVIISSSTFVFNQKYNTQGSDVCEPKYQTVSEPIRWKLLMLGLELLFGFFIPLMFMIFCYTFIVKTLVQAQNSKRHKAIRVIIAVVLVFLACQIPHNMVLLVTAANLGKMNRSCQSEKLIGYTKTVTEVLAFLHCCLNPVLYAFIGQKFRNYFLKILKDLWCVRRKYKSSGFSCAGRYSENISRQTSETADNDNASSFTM
Sequence of G2/mitotic-specific cyclin-B1 (P14635 whole entry): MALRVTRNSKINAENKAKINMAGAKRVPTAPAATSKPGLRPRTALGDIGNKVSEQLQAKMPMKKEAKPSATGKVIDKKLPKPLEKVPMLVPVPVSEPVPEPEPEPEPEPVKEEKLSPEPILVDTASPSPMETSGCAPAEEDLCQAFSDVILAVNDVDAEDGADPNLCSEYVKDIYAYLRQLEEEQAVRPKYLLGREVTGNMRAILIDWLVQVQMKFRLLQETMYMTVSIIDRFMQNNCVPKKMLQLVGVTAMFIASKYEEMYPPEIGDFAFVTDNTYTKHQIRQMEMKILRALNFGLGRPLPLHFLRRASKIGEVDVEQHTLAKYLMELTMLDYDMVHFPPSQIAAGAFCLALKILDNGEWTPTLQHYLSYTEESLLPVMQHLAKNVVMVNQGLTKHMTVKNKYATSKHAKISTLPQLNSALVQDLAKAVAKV
Sequence of Melanin-concentrating hormone receptor 1 (Q99705 whole entry): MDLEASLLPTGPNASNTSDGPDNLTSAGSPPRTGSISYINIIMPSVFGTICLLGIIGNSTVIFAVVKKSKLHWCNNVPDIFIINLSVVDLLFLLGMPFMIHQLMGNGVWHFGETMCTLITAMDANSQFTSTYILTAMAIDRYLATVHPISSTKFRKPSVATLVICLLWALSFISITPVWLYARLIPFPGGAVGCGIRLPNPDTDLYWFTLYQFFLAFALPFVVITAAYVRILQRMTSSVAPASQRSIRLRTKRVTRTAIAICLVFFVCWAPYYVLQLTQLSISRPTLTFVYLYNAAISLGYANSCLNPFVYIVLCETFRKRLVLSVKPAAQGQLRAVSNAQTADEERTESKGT

`COc1cc(C2C(C(=O)c3cc4ccccc4o3)=C(O)C(=O)N2c2cc(C)on2)cc(OC)c1OC` (configuration not stated): the results for the IC50 in [1] and in assay [2] were > 39.8 µM (not active) and 4.1 µM (active), respectively. In addition, the EC50 in assay [3] was > 260 µM (inactive).

Regarding `COC(=O)C12CC3(CCC4C5C(C(OCc6ccccc6)C41)C52)OCCO3` (configuration not stated), on Cytochrome P450 2C9, the half-maximal activity concentration (AC50) (usually the midpoint of the concentration-response curve, whichever way the signal moves) is 5.01 µM (inconclusive).

`O=C(Nc1ccc([N+](=O)[O-])cc1)Nc1ccc(N2CCOCC2)c2nonc12`: the EC50 in [4] was 3.77 µM (active); in [5] it was > 30 µM (not active); in assay [6] it was > 40 µM (inactive).

As to `O=c1c2ccccc2nc(/C=C\c2ccccc2[N+](=O)[O-])n1-c1ccccc1O`, the AC50 with HeLa was 94.2 µM (active).

For `O=S(=O)(NC1CCCCC1N1CCOCC1)c1ccc(Cl)cc1` (configuration not stated), the EC50 was 0.823 µM (active) at Mucolipin-3, > 29.9 µM (not active) on Ion channel NompC [7], 14 µM (inactive) at Ion channel NompC [8] and 13.7 µM (active) in [9].

For `COc1cccc(C(c2cc3c(cc2O)OCO3)N2CCN(C(c3cc4c(cc3O)OCO4)c3cccc(OC)c3O)CC2)c1O` (configuration not stated), in [10], the IC50 (commonly the concentration at which inhibition is half-maximal) is > 40 µM (not active).

Turning to `COc1ccc(Oc2c(Cl)cnn(-c3cccc(C(F)(F)F)c3)c2=O)cc1`, the half-inhibitory concentration (IC50) in assay [11] was 2.6 µM (active).

Take `CN(C)C(CNc1ccc(C(F)(F)F)cn1)c1ccccc1` (configuration not stated): the IC50 (in assay [12]; at Beta-galactosidase) was > 66.6 µM (inactive) throughout. The EC50 in [13] was 2.11 µM (active).

With `N#CC(OC(=O)c1ccccc1)c1cccc([N+](=O)[O-])c1` (configuration not stated), in [14], the AC50 is 7.45 µM (active).

`Cc1ccc(/C=N/NC(=O)c2ccc3c(c2)OCCO3)s1`: the EC50 in [15] is > 49.7 µM (not active); with BJ [16], 12.4 µM (active); at Wee1-like protein kinase, > 49.7 µM (not active); in the assay with BJ [17], 140 µM (active); in the assay on BJ [18] it was > 150 µM (inconclusive); in [19] it was 17.9 µM (active). The half-maximal activity concentration (AC50) in assay [20] is 1.48 µM (active).

For the molecule `O=C(Nc1ccc(Cl)c(Cl)c1)c1ccno1`, the EC50 in [21] is 11.8 µM (active); in assay [22] it was 11.1 µM (active).
